According to ChEMBL document CHEMBL2062364, “Discovery and optimization of new benzimidazole- and benzoxazole-pyrimidone selective PI3Kβ inhibitors for the treatment of phosphatase and TENsin homologue (PTEN)-deficient cancers” (J Med Chem, 2012):

Key:
[1] = Clearance in CB17/ICR-Prkdc SCID mouse at 6 mg/kg, iv; type: ADME, organism-based; design: dose 6 mg/kg, route intravenous; settings: in vivo
[2] = Inhibition of mTORC2-mediated Akt phosphorylation at Ser473 residue in PTEN-deficient human PC3 cells after 2 hrs by Western blot analysis; type: cell-based; settings: PC-3, 2 h
[3] = Drug uptake in tumor of SCID mouse xenografted with PTEN-deficient human PC3 cells at 300 mg/kg, po BID measured after 6 hrs; type: ADME, organism-based, Neoplasm, PC-3; design: dose 300 mg/kg, route oral; settings: read-out: Drug uptake
[4] = Plasma concentration in SCID mouse xenografted with PTEN-deficient human PC3 cells at 300 mg/kg, po BID measured after 3 hrs; type: ADME, organism-based, PC-3; design: dose 300 mg/kg, route oral
[5] = Apparent permeability of the compound across human Caco2 cells; type: ADME, cell-based; settings: Caco-2
[6] = AUC (0 to Tlast) in CB17/ICR-Prkdc SCID mouse at 10 mg/kg, po; type: ADME, organism-based; design: dose 10 mg/kg, route oral; settings: plasma
[7] = Plasma concentration in SCID mouse xenografted with PTEN-deficient human PC3 cells at 300 mg/kg, po BID measured after 6 hrs; type: ADME, organism-based, PC-3; design: dose 300 mg/kg, route oral
[8] = molecular target: T1, Phosphatidylinositol 4,5-bisphosphate 3-kinase catalytic subunit beta isoform (Homo sapiens, UniProt P42338); assay: Inhibition of N-terminus poly-His tagged human PI3Kbeta expressed in baculovirus infected insect […] cells coexpressing p85alpha using PI(4,5)P2 as substrate preincubated with compound for 15 mins measured after 10 mins by HTRF assay
[9] = system: Mus musculus; assay: Inhibition of Akt phosphorylation at T308 residue in tumor of po dosed SCID mouse bearing human PTEN-deficient PC3 cells administered BID; type: functional, organism-based; settings: PC-3
[10] = molecular target: T1, Phosphatidylinositol 4,5-bisphosphate 3-kinase catalytic subunit beta isoform; assay: Inhibition of human PI3Kbeta-mediated Akt phosphorylation at Ser473 residue expressed in mouse MEF-3T3 cells after 0.5 to 2 hrs by Western blot analysis; type: cell-based
[11] = Drug uptake in tumor of SCID mouse xenografted with PTEN-deficient human PC3 cells at 300 mg/kg, po BID measured after 3 hrs; type: ADME, organism-based, Neoplasm, PC-3; design: dose 300 mg/kg, route oral; settings: read-out: Drug uptake
[12] = molecular target: T2, Phosphatidylinositol 4,5-bisphosphate 3-kinase catalytic subunit delta isoform (Homo sapiens, UniProt O00329); assay: Inhibition of human PI3Kdelta-mediated Akt phosphorylation at Ser473 residue expressed in mouse MEF-3T3 cells after 0.5 to 2 hrs by Western blot analysis; type: cell-based
T2 sequence (O00329 whole entry): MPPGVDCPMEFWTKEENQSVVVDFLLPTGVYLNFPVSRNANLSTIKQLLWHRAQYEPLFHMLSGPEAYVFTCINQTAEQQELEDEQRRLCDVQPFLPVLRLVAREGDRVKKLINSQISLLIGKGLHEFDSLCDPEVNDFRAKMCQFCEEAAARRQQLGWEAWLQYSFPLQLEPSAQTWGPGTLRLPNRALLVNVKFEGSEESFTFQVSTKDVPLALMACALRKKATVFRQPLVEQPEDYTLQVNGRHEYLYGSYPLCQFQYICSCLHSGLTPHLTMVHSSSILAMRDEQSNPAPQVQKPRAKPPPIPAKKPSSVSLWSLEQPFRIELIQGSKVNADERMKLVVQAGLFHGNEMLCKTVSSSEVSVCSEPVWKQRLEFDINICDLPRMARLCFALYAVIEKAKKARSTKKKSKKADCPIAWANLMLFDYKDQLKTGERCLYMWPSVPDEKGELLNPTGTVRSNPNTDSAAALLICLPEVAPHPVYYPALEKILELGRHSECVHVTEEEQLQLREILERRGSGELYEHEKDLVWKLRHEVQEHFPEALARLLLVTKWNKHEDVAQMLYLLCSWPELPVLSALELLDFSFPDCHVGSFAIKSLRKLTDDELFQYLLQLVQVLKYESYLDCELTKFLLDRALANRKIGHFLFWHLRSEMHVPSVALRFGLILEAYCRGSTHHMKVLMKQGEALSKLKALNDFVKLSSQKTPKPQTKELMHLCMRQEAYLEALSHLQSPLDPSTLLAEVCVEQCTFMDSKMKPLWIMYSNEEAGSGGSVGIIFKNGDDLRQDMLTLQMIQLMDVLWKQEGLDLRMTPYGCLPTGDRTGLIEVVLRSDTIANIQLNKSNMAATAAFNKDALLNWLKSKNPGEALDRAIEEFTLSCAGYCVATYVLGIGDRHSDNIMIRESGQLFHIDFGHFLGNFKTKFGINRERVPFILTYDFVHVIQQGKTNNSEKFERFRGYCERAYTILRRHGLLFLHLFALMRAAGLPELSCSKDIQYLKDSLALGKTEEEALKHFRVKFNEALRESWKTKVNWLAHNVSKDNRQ

[13] = Drug metabolism in mouse liver microsomes; type: ADME, Microsome; settings: read-out: Drug metabolism
[14] = Cmax in CB17/ICR-Prkdc SCID mouse at 10 mg/kg, po; type: ADME, organism-based; design: dose 10 mg/kg, route oral; settings: in vivo
[15] = system: Mus musculus; assay: Toxicity in SCID mouse bearing PTEN-deficient human PC3 cells assessed as weight loss at 300 mg/kg, po BID for 9 days; type: organism-based, PC-3; design: dose 300 mg/kg, route oral; settings: in vivo, 216 h
[16] = molecular target: Serine/threonine-protein kinase mTOR (Homo sapiens, UniProt P42345); assay: Inhibition of mTOR
[17] = Plasma concentration in SCID mouse xenografted with PTEN-deficient human PC3 cells at 300 mg/kg, po BID measured after 0.5 hrs; type: ADME, organism-based, PC-3; design: dose 300 mg/kg, route oral
[18] = molecular target: Phosphatidylinositol 4,5-bisphosphate 3-kinase catalytic subunit gamma isoform (Homo sapiens, UniProt P48736); assay: Inhibition of N-terminus poly-His tagged human PI3Kgamma expressed in baculovirus infected insect sf9 cells using PI(4,5)P2 as substrate preincubated with compound for 15 mins measured after 10 mins by HTRF assay
[19] = Drug uptake in tumor of SCID mouse xenografted with PTEN-deficient human PC3 cells at 300 mg/kg, po BID measured after 1 hr; type: ADME, organism-based, Neoplasm, PC-3; design: dose 300 mg/kg, route oral; settings: read-out: Drug uptake
[20] = system: Nucleic Acid; assay: Ratio of drug uptake in plasma to tumor of SCID mouse xenografted with PTEN-deficient human PC3 cells at 300 mg/kg, po BID measured after 0.5 to 24 hrs; type: ADME, organism-based, PC-3; design: dose 300 mg/kg, route oral; settings: in vivo
[21] = AUC (0 to Tlast) in CB17/ICR-Prkdc SCID mouse at 6 mg/kg, iv; type: ADME, organism-based; design: dose 6 mg/kg, route intravenous; settings: plasma
[22] = system: Mus musculus; assay: Inhibition of Akt phosphorylation at T308 residue in SCID mouse bearing human PTEN-deficient PC3 cells at 300 mg/kg, po BID measured after 6 hrs; type: functional; settings: PC-3, 6 h
[23] = Plasma concentration in SCID mouse xenografted with PTEN-deficient human PC3 cells at 300 mg/kg, po BID measured after 24 hrs; type: ADME, organism-based, PC-3; design: dose 300 mg/kg, route oral
[24] = Drug metabolism in human liver microsomes; type: ADME, Microsome; settings: read-out: Drug metabolism
[25] = system: Plasma; assay: Plasma concentration in SCID mouse xenografted with PTEN-deficient human PC3 cells at 300 mg/kg, po BID measured after day 1; type: ADME, organism-based, PC-3; design: dose 300 mg/kg, route oral; settings: in vivo
[26] = molecular target: T1, Phosphatidylinositol 4,5-bisphosphate 3-kinase catalytic subunit beta isoform; assay: Inhibition of human PI3Kbeta-mediated Akt phosphorylation at Ser473 residue expressed in PTEN-deficient human PC3 cells by chemiluminescence assay; type: cell-based, PC-3
[27] = AUC (0 to infinity) in CB17/ICR-Prkdc SCID mouse at 10 mg/kg, po; type: ADME, organism-based; design: time infinity, dose 10 mg/kg, route oral; settings: plasma
[28] = system: Mus musculus; assay: Tlast in CB17/ICR-Prkdc SCID mouse at 6 mg/kg, iv; type: ADME, organism-based; design: dose 6 mg/kg, route intravenous; settings: in vivo
[29] = system: Mus musculus; assay: Tlast in CB17/ICR-Prkdc SCID mouse at 10 mg/kg, po; type: ADME, organism-based; design: dose 10 mg/kg, route oral; settings: in vivo

T1 sequence (P42338 whole entry, canonical isoform): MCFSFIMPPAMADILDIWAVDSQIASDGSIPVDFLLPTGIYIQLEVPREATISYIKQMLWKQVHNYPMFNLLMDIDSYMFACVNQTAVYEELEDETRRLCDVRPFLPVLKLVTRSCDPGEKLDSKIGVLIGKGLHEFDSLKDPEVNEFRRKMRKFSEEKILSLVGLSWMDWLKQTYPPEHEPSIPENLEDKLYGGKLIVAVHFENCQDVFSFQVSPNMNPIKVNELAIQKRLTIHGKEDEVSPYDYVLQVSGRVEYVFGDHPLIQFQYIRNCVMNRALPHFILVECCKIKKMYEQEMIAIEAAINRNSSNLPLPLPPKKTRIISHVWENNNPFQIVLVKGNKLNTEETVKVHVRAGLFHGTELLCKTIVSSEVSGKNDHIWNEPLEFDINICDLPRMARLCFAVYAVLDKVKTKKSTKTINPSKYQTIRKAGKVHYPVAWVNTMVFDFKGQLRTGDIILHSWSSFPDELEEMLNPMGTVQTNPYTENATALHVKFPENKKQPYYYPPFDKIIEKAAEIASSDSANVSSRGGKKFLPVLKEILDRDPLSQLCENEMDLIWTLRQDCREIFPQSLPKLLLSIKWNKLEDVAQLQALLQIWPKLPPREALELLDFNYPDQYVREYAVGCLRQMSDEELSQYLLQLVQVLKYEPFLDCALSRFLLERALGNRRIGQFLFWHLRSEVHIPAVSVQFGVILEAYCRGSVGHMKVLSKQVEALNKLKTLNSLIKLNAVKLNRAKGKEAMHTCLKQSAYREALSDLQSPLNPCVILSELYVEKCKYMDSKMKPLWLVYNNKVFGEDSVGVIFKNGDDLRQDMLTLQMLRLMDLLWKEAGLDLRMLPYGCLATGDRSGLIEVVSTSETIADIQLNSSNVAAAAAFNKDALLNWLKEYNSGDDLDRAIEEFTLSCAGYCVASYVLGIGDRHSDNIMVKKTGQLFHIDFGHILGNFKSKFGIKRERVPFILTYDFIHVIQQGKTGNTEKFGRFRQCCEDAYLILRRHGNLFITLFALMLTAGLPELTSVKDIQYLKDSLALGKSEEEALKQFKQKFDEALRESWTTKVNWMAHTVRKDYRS
Sequence of Phosphatidylinositol 4,5-bisphosphate 3-kinase catalytic subunit gamma isoform (P48736 whole entry, canonical isoform): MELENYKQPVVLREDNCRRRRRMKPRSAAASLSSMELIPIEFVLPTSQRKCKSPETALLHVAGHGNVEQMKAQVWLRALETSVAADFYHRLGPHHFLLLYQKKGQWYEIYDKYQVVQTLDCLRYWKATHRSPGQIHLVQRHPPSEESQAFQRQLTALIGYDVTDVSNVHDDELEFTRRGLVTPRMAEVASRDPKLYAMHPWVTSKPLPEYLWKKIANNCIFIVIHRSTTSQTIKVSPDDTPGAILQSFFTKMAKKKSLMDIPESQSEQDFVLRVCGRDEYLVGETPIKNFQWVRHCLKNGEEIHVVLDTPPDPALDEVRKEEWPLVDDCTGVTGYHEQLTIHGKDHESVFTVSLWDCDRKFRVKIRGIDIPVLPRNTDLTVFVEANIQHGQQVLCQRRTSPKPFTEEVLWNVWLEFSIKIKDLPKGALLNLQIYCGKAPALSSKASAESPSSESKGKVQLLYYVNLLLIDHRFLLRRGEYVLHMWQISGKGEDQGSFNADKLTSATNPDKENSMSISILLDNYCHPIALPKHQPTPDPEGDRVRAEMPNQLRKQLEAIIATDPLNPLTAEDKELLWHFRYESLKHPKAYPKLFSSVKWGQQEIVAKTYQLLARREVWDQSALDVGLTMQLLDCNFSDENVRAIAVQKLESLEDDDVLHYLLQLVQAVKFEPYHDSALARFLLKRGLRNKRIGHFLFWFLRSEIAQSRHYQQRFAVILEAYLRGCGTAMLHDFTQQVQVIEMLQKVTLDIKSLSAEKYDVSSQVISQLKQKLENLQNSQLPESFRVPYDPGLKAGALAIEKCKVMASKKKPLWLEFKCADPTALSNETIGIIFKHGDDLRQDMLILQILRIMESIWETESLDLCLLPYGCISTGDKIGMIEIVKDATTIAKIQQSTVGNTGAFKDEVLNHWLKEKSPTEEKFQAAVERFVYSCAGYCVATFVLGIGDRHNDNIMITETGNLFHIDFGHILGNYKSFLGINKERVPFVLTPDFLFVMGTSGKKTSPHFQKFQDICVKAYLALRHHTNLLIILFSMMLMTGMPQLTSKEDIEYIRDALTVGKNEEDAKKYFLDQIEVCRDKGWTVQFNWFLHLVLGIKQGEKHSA

## Cn1c(Cc2nc(N3CCOCC3)cc(=O)[nH]2)nc2ccccc21
[1]
  clearance: 51.7 mL/min/kg
[2]
  IC50: 76 nM
[3]
  concentration at 6 h: 3.6 µM
[4]
  concentration at 3 h: 8 µM
[5]
  Papp: 3 ×10⁻⁶ cm/s
[6]
  AUC(0-t): 846 ng·h/mL
[7]
  concentration at 6 h: 11 µM
[8]
  IC50: 99 nM
[9]
  EC50: 2100 nM
[10]
  IC50: 86 nM
[11]
  concentration at 3 h: 6 µM
[12]
  IC50: 2650 nM
[13]
  metabolised: 13%
[14]
  Cmax: 641 ng/mL
[15]
  Activity: Non-toxic
[16]
  IC50: > 10000 nM
[17]
  concentration at 0.5 h: 28 µM
[18]
  IC50: > 10000 nM
[19]
  concentration at 1 h: 16 µM
[20]
  Ratio: 1
[21]
  AUC(0-t): 1950 ng·h/mL
[22]
  inhibition in vivo at 300 mg/kg: > 50%
[23]
  concentration at 24 h: 1.7 µM
[24]
  metabolised: 27%
[25]
  Drug uptake: Active
[26]
  IC50: 76 nM
[27]
  AUC(0-inf): 850 ng·h/mL
[28]
  Tlast: 24 h
[29]
  Tlast: 24 h
